Measured values: patent US6664252B2, “4-aminopyrrolo[2,3-d]pyrimidine compounds specific to adenosine A2a receptor and uses thereof” (OSI Pharmaceuticals, Inc., priority 1999, dated 2003)
pIC50: −log10 of the molar value. Blank lines part the entries; values can stand above or below the compound they belong to.

How the values were obtained:
human adenosine A1 (A1R) = biological target: T1, human adenosine A1 (A1R) (Homo sapiens, UniProt P30542); assay: Yeast β-Galactosidase reporter gene assay, inhibition of NECA-induced activity, strain CY12660; type: cell-based; details: Table 10
T1 construct: yeast alpha-factor (MFalpha1) prepro leader (N, cleaved yes); expressed in transfected cells; host or cells: Saccharomyces cerevisiae (strain CY12660 and related strains carrying plasmid p5095)
T1 sequence (P30542 1-326): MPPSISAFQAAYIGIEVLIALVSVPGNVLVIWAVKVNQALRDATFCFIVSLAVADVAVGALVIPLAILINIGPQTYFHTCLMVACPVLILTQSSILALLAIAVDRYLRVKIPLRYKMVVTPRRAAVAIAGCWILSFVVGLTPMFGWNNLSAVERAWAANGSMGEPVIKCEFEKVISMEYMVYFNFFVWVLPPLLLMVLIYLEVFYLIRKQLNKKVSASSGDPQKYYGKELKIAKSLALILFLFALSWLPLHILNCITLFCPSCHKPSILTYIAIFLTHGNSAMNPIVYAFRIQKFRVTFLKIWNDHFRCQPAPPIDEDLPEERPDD

[1] = biological target: T2, human A2b receptor subtype (Homo sapiens, UniProt P29275); assay: Adenosine 2b receptor subtype competition radioligand binding, [3H]DPCPX, HEK293 membranes; details: for Ki: Table 14, read-out: Binding Data K1 (nM) A2B
T2 construct: expressed in transfected cells; host or cells: HEK293
T2 sequence (P29275 1-332): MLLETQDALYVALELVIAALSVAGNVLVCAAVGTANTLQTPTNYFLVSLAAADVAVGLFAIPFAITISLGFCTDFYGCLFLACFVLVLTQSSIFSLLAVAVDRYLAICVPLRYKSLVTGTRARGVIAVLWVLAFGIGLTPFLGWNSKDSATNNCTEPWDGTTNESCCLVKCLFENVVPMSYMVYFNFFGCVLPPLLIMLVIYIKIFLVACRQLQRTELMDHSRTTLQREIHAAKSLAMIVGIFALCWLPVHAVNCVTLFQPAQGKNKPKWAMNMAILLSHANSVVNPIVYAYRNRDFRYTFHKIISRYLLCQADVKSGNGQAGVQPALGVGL

[2] = biological target: T3, human A2a receptor subtype (Homo sapiens, UniProt P29274); assay: Adenosine 2a receptor subtype competition radioligand binding, [3H]CGS-21680, HEK293 membranes; details: Table 13, in %; footnote 8: % activity @ 10 μM
T3 construct: expressed in transfected cells; host or cells: HEK-293 (Cadus clone #5)

[3] = biological target: T4, human A3 receptor subtype (Homo sapiens, UniProt P0DMS8); assay: Adenosine 3 receptor competition radioligand binding, [125I]AB-MECA, HEK293 membranes; details: Table 14; read-out: Binding Data K1 (nM) A3
T4 construct: expressed in transfected cells; host or cells: HEK293
T4 sequence (P0DMS8 1-318): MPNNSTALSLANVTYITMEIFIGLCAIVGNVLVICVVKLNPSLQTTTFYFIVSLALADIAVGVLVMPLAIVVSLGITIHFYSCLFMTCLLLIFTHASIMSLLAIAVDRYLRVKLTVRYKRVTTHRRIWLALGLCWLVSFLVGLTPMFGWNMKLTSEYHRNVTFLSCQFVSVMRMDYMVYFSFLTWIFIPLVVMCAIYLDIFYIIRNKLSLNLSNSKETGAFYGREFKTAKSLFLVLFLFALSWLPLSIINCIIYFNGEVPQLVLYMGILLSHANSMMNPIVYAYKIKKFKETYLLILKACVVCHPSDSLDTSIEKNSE

[4] = biological target: T5, human A1 receptor subtype (Homo sapiens, UniProt P30542); details: Table 13, in %; footnote 8: % activity @ 10 μM
T5 sequence (P30542 1-326): T1 sequence (P30542 1-326)

[5] = biological target: T6, human A1 adenosine receptor (Homo sapiens, UniProt P30542); details: reported value; cited from earlier work
T6 sequence (P30542 1-326): T1 sequence (P30542 1-326)

T3 sequence (P29274 whole entry): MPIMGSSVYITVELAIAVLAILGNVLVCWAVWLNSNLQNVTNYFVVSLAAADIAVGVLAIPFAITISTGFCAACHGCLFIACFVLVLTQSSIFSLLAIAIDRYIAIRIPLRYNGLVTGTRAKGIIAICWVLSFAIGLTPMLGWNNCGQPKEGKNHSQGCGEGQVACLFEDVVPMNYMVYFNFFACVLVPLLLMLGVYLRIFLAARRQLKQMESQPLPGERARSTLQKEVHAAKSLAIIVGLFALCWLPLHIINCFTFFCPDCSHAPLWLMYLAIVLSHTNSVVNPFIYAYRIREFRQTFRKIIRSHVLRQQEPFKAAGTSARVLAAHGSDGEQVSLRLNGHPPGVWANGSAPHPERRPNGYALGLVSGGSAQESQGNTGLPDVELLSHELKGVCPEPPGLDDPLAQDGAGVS

- melting point: 210 to 220 °C (dec.)
Structure (SMILES): OC[C@H]1CCCN1c1nc(-c2ccncc2)nc2[nH]ccc12 [Compound 1601]

- Ki [1]: 8.8 nM
Structure (SMILES): CC(=O)NCCNc1nc(-c2ccccc2)nc2[nH]c(COc3ccc(F)cc3)cc12 [Compound 1401, 4-(2-acetylaminoethyl)amino-6-(4-fluorophenoxy)methyl-2-phenyl-7H-pyrrolo[2,3d]pyrimidine]

- Ki [3]: 60 nM
Structure (SMILES): CC(=O)NCCNc1nc(-c2ccccc2)nc2[nH]c(COc3ccc(Cl)cc3)cc12 [Compound 1402, 4-(2-acetylaminoethyl)amino-6-(4-chlorophenoxy)methyl-2-phenyl-7H-pyrrolo[2,3d]pyrimidine]

- Ki [1]: 10.3 nM
Structure (SMILES): CC(=O)NCCNc1nc(-c2ccccc2)nc2[nH]c(COc3ccccc3)cc12 [Compound 1400, 4-(2-acetylaminoethyl)amino-6-phenoxymethyl-2-phenyl-7H-pyrrolo[2,3d]pyrimidine]

- % activity, A2b binding ([1]; Table 13, in %, footnote 8: % activity @ 10 μM): 30%
Structure (SMILES): Cc1[nH]c2nc(-c3ccccc3)nc(N[C@H]3CC[C@H](O)CC3)c2c1C [Compound 1305]

- melting point: 280 to 316 °C (dec.)
Structure (SMILES): NC(=O)[C@H]1CCCN1c1nc(-c2ccncc2)nc2[nH]c(-c3ccccc3)cc12 [Compound 1609, 1-(6-Phenyl-2-pyridin-4-yl-7H-pyrrolo[2,3-d]pyrimidin-4-yl]-pyrrolidine-2-carboxylic acid amide]

Second part, the compound before the results:

Structure (SMILES): Cc1[nH]c2nc(-c3ccccc3)nc(NCCNC(=O)CCN)c2c1C [Compound 1009]
- pIC50 (human adenosine A1 (A1R)): < 5.00

Structure (SMILES): CC(=O)NCCNc1nc(-c2ccccc2)nc2[nH]c(COc3ccccc3)cc12 [(25), 4-(2-acetylaminoethyl)amino-6-phenoxymethyl-2-phenyl-7H-pyrrolo[2,3d]pyrimidine]
- melting point: 196 to 197 °C

Structure (SMILES): Cc1[nH]c2nc(-c3ccccc3)nc(NCCNS(C)(=O)=O)c2c1C [Compound 1007]
- pIC50 (human adenosine A1 (A1R)): < 5.00

Structure (SMILES): CNC(=O)NCCCNc1nc(-c2ccccc2)nc2[nH]c(C)c(C)c12 [Compound 1310]
- % activity, A2a binding [2]: 76%

Structure (SMILES): Cc1[nH]c2nc(-c3ccccc3)nc(NCCNC(=O)C3(N)CC3)c2c1C [Compound 1313]
- % activity, A1 binding [4]: 30%
- % activity, A2a binding [2]: 65%

Structure (SMILES): CC(Cc1ccccc1)Nc1ncnc2c1ncn2[C@@H]1O[C@H](CO)[C@@H](O)[C@H]1O (single isomer, unassigned; (-)) [R-PIA, (−)-N6-(2-phenylisopropyl)-adenosine]
- reported affinity [5]: approximately 50 nM

Structure (SMILES): Cc1[nH]c2nc(-c3ccccc3)nc(NCCN)c2c1C [Compound 1000]
- pIC50 (human adenosine A1 (A1R)): < 5.00
